# Entries after “also recorded” stand apart in the source; their conditions may differ.
# What was measured:
# MDA = assay: MDA-HOBA (propenal-HOBA) adducts in urine and tissues after oral gavage (LC-MS/MS); assay type: in vivo, mouse
# Protocol: Urine samples were collected for 16 h after oral gavage of male Ldlr^−/− mice on a WD with either 2-HOBA or 4-HOBA. After 16 h, the Ldlr^−/− mice were sacrificed and the HOBA-propenal adducts in urine (14A), liver (14B), kidney (14C) and spleen (14D) were measured using LC-MS/MS as described in methods (14A-D) (Mann-Whitney test, ** indicates p<0.01 and *** indicates p<0.001).
# Ldlr^−/− and WT on C57BL/6 background mice were obtained from the Jackson Laboratory. Animal protocols were performed according to the regulations of Vanderbilt University's Institutional Animal Care and Usage Committee. Mice were maintained on chow or a Western-type diet containing 21% milk fat and 0.15% cholesterol (Teklad). Eight week old, female Ldlr^−/− mice on a chow diet were pretreated with vehicle alone (Water) or containing either 1 g/L of 4-HOBA or 1 g/L of 2-HOBA. 4-HOBA (as hydrochloride salt) was synthesized as previously described^21. 2-HOBA (as the acetate salt, CAS 1206675-01-5) was manufactured by TSI Co., Ltd. (Missoula, MT) and obtained from Metabolic Technologies, Inc., Ames, IA^24. A commercial production lot was used (Lot 16120312), and the purity of the commercial lot was verified to be >99% via HPLC and NMR spectroscopy^24. After two weeks, the mice continued to receive these treatments but were switched to a western diet for 16 weeks to induce hypercholesterolemia and atherosclerosis. Similarly, 12 week-old male Ldlr^−/− mice were pretreated with vehicle alone (water) or containing 1 g/L of 2-HOBA for two weeks and were then switched to a western diet for 16 weeks to induce hypercholesterolemia and atherosclerosis, while continuing the treatment with 2-HOBA or water alone^58, 59, 60 Based on the average weight and daily consumption of water per mouse the estimated daily dosage with 1 g/L of 2-HOBA is 200 mg/Kg. […] Eight week old, male Ldlr^−/− mice were fed a western diet for 16 weeks and were continuously treated with water containing either 2-HOBA or 4-HOBA. Urine samples were collected using metabolic cages (2 mice in one cage) during 18 h after oral gavage with either 2-HOBA or 4-HOBA (5 mg each mouse).
# The scavenger-MDA adducts were extracted, (1) from homogenate of tissue (equivalent of 30 mg) or (2) from cells (1 ml), three times with 500 μl of ethyl acetate. The extract was dried down, resuspended in 100 μl of ACN-water (1:1, v/v with 0.1% formic acid), vortexed, and filtered through a 0.22 μm spin X column. The reactions were analyzed by LC-EST/MS/MS using the column a Phenomenex Kinetex column at a flow rate of 0.1 ml/min. The gradient consisted of Solvent A, water with 0.2% formic acid and solvent B, acetonitrile with 0.2% formic acid. The gradient was as follows: 0-2 min 99.9% A, 2-9 min 99.9-0.1% A, 9-12 min 99.9% B. The mass spectrometer was operated in the positive ion mode, and the spray voltage was maintained at 5,000 V. Nitrogen was used for the sheath gas and auxiliary gas at pressures of 30 and 5 arbitrary units, respectively. The optimized skimmer offset was set at 10, capillary temperature was 300° C., and the tube lens voltage was specific for each compound. SRM of specific transition ions for the precursor ions at m/z 178→107 (propenal-HOBA adduct).
# [1] = Body weight, water intake, diet consumption, mortality; assay type: in vivo; details: Ldlr−/− mice, western diet 16 weeks, 1 g/L; compared to vehicle or 4-HOBA
# Protocol: The body weight (FIG. 8A), water intake (FIG. 8B), and diet consumption (FIG. 8C) were measured in the Ldlr^−/− mice consuming a Western diet for 16 weeks and treated with 1 g/L 2-HOBA, 4-HOBA, or vehicle. (FIG. 8D) The plasma was pooled from hypercholesterolemic Ldlr^−/− mice (4 mice/group) that were fasted for 6 hours. Fast performance liquid chromatography (FPLC) was performed using a Superose 6 column. Total cholesterol was measured by an enzymatic assay and the average is shown for two pooled plasma samples per group of mice.
# Ldlr^−/− and WT on C57BL/6 background mice were obtained from the Jackson Laboratory. Animal protocols were performed according to the regulations of Vanderbilt University's Institutional Animal Care and Usage Committee. Mice were maintained on chow or a Western-type diet containing 21% milk fat and 0.15% cholesterol (Teklad). Eight week old, female Ldlr^−/− mice on a chow diet were pretreated with vehicle alone (Water) or containing either 1 g/L of 4-HOBA or 1 g/L of 2-HOBA. 4-HOBA (as hydrochloride salt) was synthesized as previously described^21. 2-HOBA (as the acetate salt, CAS 1206675-01-5) was manufactured by TSI Co., Ltd. (Missoula, MT) and obtained from Metabolic Technologies, Inc., Ames, IA^24. A commercial production lot was used (Lot 16120312), and the purity of the commercial lot was verified to be >99% via HPLC and NMR spectroscopy^24. […]
# peritoneal macrophages = assay: Macrophage cytokine mRNA by real time PCR (oxidized LDL or H2O2); assay type: cell-based, mouse
# Protocol: […] Apoptotic cells were then detected by Annexin V staining and flow cytometry. […] (6A to 6H) Data are presented as mean±SEM from three independent experiments, ***p<0.001, One-way ANOVA with Bonferroni's post hoc test.
# Total RNA was isolated and purified, cDNA was synthesized, and the mRNA levels of IL-1β, IL-6 and TNF-α were measured by real-time PCR. The data are from three independent experiments. *p<0.05, **p<0.01, ***p<0.001, One-way ANOVA (Bonferroni's post hoc test).
# Total RNA was extracted and purified using Aurum Total RNA kit (Bio-Rad) according to the manufacturer's protocol. Complementary DNA was synthesized with iScript reverse transcriptase (Bio-Rad). Relative quantitation of the target mRNA was performed using specific primers, SYBR probe (Bio-Rad), and iTaqDNA polymerase (Bio-Rad) on IQ5 Thermocylcer (Bio-Rad) and normalized with 18S, as described earlier. 18S, IL-1[…] and TNF-[…] primers used were as described earlier^67.
# [2] = 16 h post oral gavage, Ldlr−/− mice
smiles,measurement,setting,value
"NCc1ccccc1O [2-HOBA, 2-hydroxybenzylamine]","propenal-HOBA adducts in kidney, 2-HOBA versus 4-HOBA",MDA; [2],5 fold
same,"propenal-HOBA adducts in liver, 2-HOBA versus 4-HOBA",MDA; [2],3 fold
same,"propenal-HOBA adducts in spleen, 2-HOBA versus 4-HOBA",MDA; [2],11 fold
same,formation of MDA-HOBA adducts in vivo,"MDA; Ldlr−/− mice on WD, oral gavage",abundantly formed; also recorded: more readily formed
same,MDA-2-HOBA versus MDA-4-HOBA (propenal-HOBA) adducts in urine,"MDA; urine collected during 16 h after oral gavage (5 mg), Ldlr−/− mice on western diet 16 weeks",19 fold
same,"body weight, water consumption, diet uptake",[1],did not affect; also recorded: does not impact
same,"levels of IL-1β, IL-6, and TNF-α mRNA","peritoneal macrophages; 500 μM 2-HOBA in the presence of H2O2 (100 μM, 24 hours)",significantly reduced
same,"macrophage inflammatory response: mRNA levels of IL-1β, IL-6, and TNF-α","peritoneal macrophages; oxidized LDL, 24 h, 500 μM",significantly reduced

# — US20230364032A1, “USE OF 2-HOBA TO TREAT ATHEROSCLEROSIS” (Vanderbilt University, priority 2020, published 2023)
